Laboratory results taken from US20250326756A1, “METHOD FOR PRODUCING 3,6-DISUBSTITUTED-IMIDAZO[1,2-B]PYRIDAZINE COMPOUNDS” (NUVATION BIO INC., priority 2022, published 2025).

Experiment: Particle size distribution of monoadipate salt particles
Type: physicochemical
Conditions: particles without milling or after wet milling
Method: The crude product was purified and milled as follows: After 4.02 Kg/Kg of anhydrous ethanol and 2.2 Kg/Kg of purified water were added into a reactor and stirred, the crude product obtained above was added to the mixture. The reaction mixture was heated to 65-70° C. and stirred until a clear solution was obtained. The recommended stirring time and rotation speed were 0.5-1 hour and 60-100 rpm, respectively. The reaction mixture was then cooled to 50-55° C. (target temperature: 53° C.) with a recommended cooling rate of 5-10° C./h. After 0.01 Kg/Kg of seed crystals of the compound of formula (5) adipate salt were added to the mixture at 50˜55° C., the mixture was stirred for 1˜3 hours (target: 2 hours) at this temperature. The reaction mixture was cooled down to 20-30° C. (target temperature: 25° C.) with recommended cooling rate of 5-10° C./h. After 8.4 Kg/Kg of purified water was slowly added to the mixture at 20-30° C. in 1-3 hours (target: 2 hours), the mixture was stirred for 1˜3 hours (target: 2 hours) at this temperature. The mixture was cooled to −5 to 5° C. (target temperature: 0° C.) at a cooling rate of 5 to 10° C./h, and stirred at this temperature for 4 to 8 hours (target: 6 hours). While maintaining the temperature at −5 to 5° C. (target temperature: 0° C.), the reaction mixture was passed through a wet mill (Blade no. 2, 6, and 6; rotation speed: 6,000-10,000 rpm, target: 8,000 rpm). Samples were taken every 20-30 minutes to measure the particle size of the solids after wet milling until D50 was no more than 45 μm (target: 35-45 μm). The reaction mixture was filtered through a filter with filter dryer sheath pre-cooled to T=−5˜5° C. The filter cake was washed with a mixture of 1.1 Kg/Kg of purified water and 0.39 Kg/Kg of anhydrous ethanol, which was pre-cooled to −5˜5° C. and maintain for at least 0.5 hour. The solid thus obtained was dried at 50˜60° C. in an oven under a controlled temperature of no more than 70° C. for 12 hours. Samples were taken every 4˜8 hours to track the residual ethanol and make sure the content of residual ethanol was no more than 0.4%. […]

For “3-(4-((R)-2-aminopropoxy)phenyl)-N—((R)-1-(3-fluorophenyl)ethyl)imidazo[1,2-b]pyridazin-6-amine adipate salt [compound of formula (5) adipate salt]”, the “Particle size D10” value was 7.2 μm, the “Particle size D50” value was 44 μm and the “Particle size D90” value was 107 μm.
